In patent US20250059162A1, “MULTI-PROTEIN DEGRADATION AGENT HAVING IMIDE SKELETON” (SUZHOU KINTOR PHARMACEUTICALS, INC., priority 2021, published 2025) one finds IC50 data, which are given here for 52 molecules.

In this assay the test system is HL60 cells. Kind of assay: Anti-proliferation on HL60 cells (CellTiter-Glo, 3 days). The conditions noted are these: Homo sapiens, HL-60, 72 h, 3 days incubation, CTG luminescence, IC50 by XLfit, read-out: HL60 cells Proliferation inhibitory activity. In kind it is cell-based. How it is done:
HL60 cells (Cell Bank of Chinese Academy of Sciences) in the logarithmic growth phase were counted and plated evenly in a 96-well transparent bottom white plate at 20000 cells per well and 100 μL per well.
A certain amount of the compound of the present invention was weighed and diluted with DMSO to a 10 mM stock solution. The culture medium RPMI-1640 (meilunbio, MA0215) corresponding to the cells were taken, and the compound was diluted to the concentration required by the test, shaken gently and mixed evenly. 50 μL of the gradient dilution of the diluted compound was added to each well of the plated cells, and 50 μL of 0.1% DMSO was added to the control group. The plate was shaken gently, mixed evenly and incubated in a cell culture incubator for 3 days.
• 3.1 The CellTiter-Glo™ (CTG) (purchased from Promega, Cat. No. G9242) reagent was taken in advance from the −20° C. refrigerator and equilibrated to room temperature in the dark. Cell Titer-Glo buffer and Cell Titer-Glo substrate were mixed at a ratio of 1:1 to prepare a CTG detection reagent. • 3.2 The 96-well plate was taken out and inspected under a microscope for growth. • 3.3 The bottom of the 96-well plate was tagged with white paper, and then the plate was wrapped with tin foil paper, shaken at 37° C. at 300 r for 10 min and mixed evenly. • 3.4. 50 μL of CTG detection reagent was added to each well, Luminescence signal was detected using a microplate reader Biotek Synergy Hi, and the inhibition rate was calculated. IC50 values of the compounds were calculated by XLfit 5.5.0 software to evaluate the proliferation inhibitory activity on HL60 cells.
As for `O=C1CCC(N2Cc3cc(C(=O)NCC4CCN(c5ccnc(-c6cccc7ccccc67)n5)CC4)ccc3C2=O)C(=O)N1` (stereo not shown) [Compound A20], the IC50 was determined as 0.021 µM.

As for `O=C1CCC(N2Cc3cc(C(=O)NCC4CCN(c5ncc(-c6cccc7ccccc67)s5)CC4)ccc3C2=O)C(=O)N1` (stereo not shown) [Compound A23], the IC50 was 0.0002 µM.

Regarding `O=C1CCC(N2Cc3cc(NC(=O)CC4CCN(c5ncc(-c6ccncc6)cn5)CC4)ccc3C2=O)C(=O)N1` (stereo not shown) [Compound A60], the IC50 is 0.06 µM.

Regarding `COc1cccc(-c2cnc(N3CCC(F)(CNCc4ccc5c(c4)CN(C4CCC(=O)NC4=O)C5=O)CC3)c(F)c2)c1` (stereo not shown) [Compound A120], the IC50 is 0.00247 µM.

For the molecule `O=C1CC[C@@H](N2Cc3cc(CNCC4CCN(c5ncc(-c6cccc(F)c6)cc5F)CC4)ccc3C2=O)C(=O)N1` [Compound A126], the IC50 was determined as 0.0067 µM.

In the case of `O=C1CCC(N2Cc3cc(C(=O)NCC4CCN(c5cncc(-c6cccc7ccccc67)c5)CC4)ccc3C2=O)C(=O)N1` (stereo not shown) [Compound A18], the IC50 was 0.0055 µM.

For `O=C1CCC(N2Cc3cc(CNCC4CCN(c5ncc(-c6cccc(Cl)c6)cc5[N+](=O)[O-])CC4)ccc3C2=O)C(=O)N1` (stereo not shown) [Compound A78], the IC50 turned out to be 0.003 µM.

With `O=C1CCC(N2C(=O)c3cc4c(cc3C2=O)CN(CC2CCN(c3ncc(-c5cccc(Cl)c5)cc3C(F)(F)F)CC2)C4)C(=O)N1` (stereo not shown) [Compound A138], the IC50 worked out at 1.1 µM.

Regarding `O=C1CCC(NC(=O)c2ccc(CNCC3CCN(c4ncc(-c5cccc(Cl)c5)cc4C(F)(F)F)CC3)cc2)C(=O)N1` (stereo not shown) [Compound A155], the IC50 worked out at 0.825 µM.

Turning to `O=C(CN1CCC(CC(=O)Nc2ccc3c(c2)CN(C2CCC(=O)NC2=O)C3=O)CC1)NCCn1c2ccccc2c2cccnc21` (stereo not shown) [Compound A8], the IC50 was 0.014 µM.

On to `O=C1CCC(N2Cc3cc(NC(=O)CC4CCN(c5ccc(-c6cccc7ccccc67)nn5)CC4)ccc3C2=O)C(=O)N1` (stereo not shown) [Compound A32], for which the IC50 was 0.012 µM.

As for `O=C1CCC(N2Cc3cc(CNCC4CC5CCC(C4)N5c4ncc(-c5cccc(Cl)c5)cc4C(F)(F)F)ccc3C2=O)C(=O)N1` (stereo not shown) [Compound A90], the IC50 came out at 0.0456 µM.

In the case of `O=C1C[C@H](N2Cc3cc(CNCC4CCN(c5ncc(-c6cccc(F)c6)cc5F)CC4)ccc3C2=O)C(=O)N1` [Compound A170], the IC50 came to 9.86 µM.

On to `O=C1CCC(N2Cc3c(csc3CNCC3CCN(c4ncc(-c5cccc(Cl)c5)cc4C(F)(F)F)CC3)C2=O)C(=O)N1` (stereo not shown) [Compound A143], for which the IC50 stood at 3.04 µM.

For the molecule `O=C1CCC(NS(=O)(=O)c2ccc(CNCC3CCN(c4ncc(-c5cccc(Cl)c5)cc4C(F)(F)F)CC3)cc2)C(=O)N1` (stereo not shown) [Compound A164], the IC50 amounted to 7.23 µM.

Regarding `O=C1CCC(N2Cc3cc(NC(=O)CC4CCN(c5ncc(-c6ccccc6Cl)cn5)CC4)ccc3C2=O)C(=O)N1` (stereo not shown) [Compound A54], the IC50 was under 0.0002 µM.

With `Cc1cccc(-c2cnc(N3CCC(CNCc4ccc5c(c4)CN([C@@H]4CCC(=O)NC4=O)C5=O)CC3)c(C(F)(F)F)c2)c1` [Compound A124], the IC50 is under 0.00304 µM.

`O=C1C[C@H](N2Cc3cc(CNCC4CCN(c5ncc(-c6cccc(F)c6)cc5C(F)(F)F)CC4)ccc3C2=O)C(=O)N1` [Compound A172]: the IC50 came to 9.99 µM.

As to `O=C1CCC(N2Cc3cc(CNCC4CCN(c5ncc(-n6c7ccccc7c7ccccc76)cc5C(F)(F)F)CC4)ccc3C2=O)C(=O)N1` (stereo not shown) [Compound A129], the IC50 stood at 0.12 µM.

Regarding `O=C1CCC(N2Cc3cc(C(=O)NCC4CCN(c5ccc(-c6cccc7cccnc67)cn5)CC4)ccc3C2=O)C(=O)N1` (stereo not shown) [Compound A42], the IC50 was found to be 0.0002 µM.

`O=C1CCC(N2Cc3cc(NC(=O)CC4CCN(c5ncc(-c6ccccc6)cn5)CC4)ccc3C2=O)C(=O)N1` (stereo not shown) [Compound A51]: the IC50 was under 0.0002 µM.

As to `O=C(CN1CCC(CNC(=O)c2ccc3c(c2)CN(C2CCC(=O)NC2=O)C3=O)CC1)NCc1cccc2ccccc12` (stereo not shown) [Compound A6], the IC50 amounted to 0.192 µM.

`O=C(CC1CCN(c2ncc(-c3cccc4ccccc34)cn2)CC1)Nc1ccc2c(c1)CN(C1CCC(=O)N(COP(=O)(O)O)C1=O)C2=O` (stereo not shown) [Compound A117]: the IC50 was found to be 0.012 µM.

As to `O=C1CCC(N2Cc3cc(C(=O)NCC4CCN(c5nccc(-c6cccc7ccccc67)n5)CC4)ccc3C2=O)C(=O)N1` (stereo not shown) [Compound A12], the IC50 amounted to 0.0045 µM.

`O=C1CCC(NC(=O)c2ccc(CNCC3CCN(c4ncc(-c5cccc(Cl)c5)cc4C(F)(F)F)CC3)c(F)c2)C(=O)N1` (stereo not shown) [Compound A159]: the IC50 was 6.7 µM.

Take `NC(=O)c1cc(-c2cccc(Cl)c2)cnc1N1CCC(CNCc2ccc3c(c2)CN(C2CCC(=O)NC2=O)C3=O)CC1` (stereo not shown) [Compound A99]: the IC50 turned out to be 0.0012 µM.

Take `Cc1cc(Cl)cc(-c2cnc(N3CCC(CNCc4ccc5c(c4)CN(C4CCC(=O)NC4=O)C5=O)CC3)c(C(F)(F)F)c2)c1` (stereo not shown) [Compound A114]: the IC50 turned out to be 0.011 µM.

On to `O=C1CCC(N2Cc3cc(NC(=O)CC4CCN(c5cnc(-c6cccc7ccccc67)cn5)CC4)ccc3C2=O)C(=O)N1` (stereo not shown) [Compound A31], for which the IC50 was under 0.0002 µM.

As to `O=C1CCC(n2c(C3CC3)nc3cc(CNCC4CCN(c5ncc(-c6cccc(Cl)c6)cc5C(F)(F)F)CC4)ccc3c2=O)C(=O)N1` (stereo not shown) [Compound A153], the IC50 was determined as 11.6 µM.

Consider `Cc1cc(-c2cccc(Cl)c2)cnc1N1CCC(CNCc2ccc3c(c2)CN(C2CCC(=O)NC2=O)C3=O)CC1` (stereo not shown) [Compound A76], for which the IC50 is under 0.0002 µM.

For `O=C1CCC(N2Cc3cc(NC(=O)CC4CCN(c5ncc(-c6cccc7cccc(F)c67)s5)CC4)ccc3C2=O)C(=O)N1` (stereo not shown) [Compound A26], the IC50 is under 0.0002 µM.

As for `O=C1CCC(N2C(=O)c3cccc4c(CNCC5CCN(c6ncc(-c7cccc(Cl)c7)cc6C(F)(F)F)CC5)ccc2c34)C(=O)N1` (stereo not shown) [Compound A174], the IC50 came out at 3.92 µM.

With `O=C1CCC(N2Cc3cc(NC(=O)CC4CCN(c5ncc(-c6ccc(Cl)cc6)cn5)CC4)ccc3C2=O)C(=O)N1` (stereo not shown) [Compound A55], the IC50 is under 0.0002 µM.

Turning to `COc1cc(CNCC2CCN(c3ncc(-c4cccc(Cl)c4)cc3C(F)(F)F)CC2)ccc1C(=O)NC1CCC(=O)NC1=O` (stereo not shown) [Compound A161], the IC50 was found to be 11.2 µM.

As for `O=C1CCC(N2Cc3cc(NC(=O)CC4CCN(c5ccc(-c6cccc(Cl)c6)nc5)CC4)ccc3C2=O)C(=O)N1` (stereo not shown) [Compound A57], the IC50 was under 0.0002 µM.

For `O=C1CCC(N2Cc3cc(C(=O)NCC4CCN(c5ccc(-c6ccc7ccccc7c6)cn5)CC4)ccc3C2=O)C(=O)N1` (stereo not shown) [Compound A40], the IC50 was determined as 0.0043 µM.

Consider `O=C1CCC(N2Cc3cc(NC(=O)CC4CCN(CC(=O)Nc5cccc6ccccc56)CC4)ccc3C2=O)C(=O)N1` (stereo not shown) [Compound A9], for which the IC50 came out at 0.006 µM.

As to `O=C1CCC(N2C(=O)c3cccc4c(CNCC5CCN(c6ncc(-c7cccc(F)c7)cc6F)CC5)ccc2c34)C(=O)N1` (stereo not shown) [Compound A175], the IC50 is 11.5 µM.

With `O=C1CCC(n2nnc3ccc(CNCC4CCN(c5ncc(-c6cccc(Cl)c6)cc5C(F)(F)F)CC4)cc3c2=O)C(=O)N1` (stereo not shown) [Compound A154], the IC50 was determined as 0.116 µM.

As to `O=C1CCC(N2Cc3c(ccc(CNCC4CCN(c5ncc(-c6cccc(Cl)c6)cc5C(F)(F)F)CC4)c3F)C2=O)C(=O)N1` (stereo not shown) [Compound A139], the IC50 stood at 0.0177 µM.

In the case of `O=C1CCC(N2Cc3cc(NC(=O)CC4CCN(c5ccc(-c6cccc(C(F)(F)F)c6)cn5)CC4)ccc3C2=O)C(=O)N1` (stereo not shown) [Compound A58], the IC50 was under 0.0002 µM.

Regarding `O=C1CC[C@@H](N2Cc3cc(CNCC4(F)CCN(c5ncc(-c6cccc(Cl)c6)cc5C(F)(F)F)CC4)ccc3C2=O)C(=O)N1` [Compound A128], the IC50 came to 0.00904 µM.

As to `O=C1CCC(N2Cc3cc(NC(=O)CC4CCN(c5ncc(C6CC6)cn5)CC4)ccc3C2=O)C(=O)N1` (stereo not shown) [Compound A49], the IC50 came out at 0.0015 µM.

For `O=C1CCC(N2Cc3cc(C(=O)NCC4CCN(c5cccc(-c6cccc7ccccc67)n5)CC4)ccc3C2=O)C(=O)N1` (stereo not shown) [Compound A14], the IC50 stood at 0.0009 µM.

`O=C1CCC(c2coc3cc(CNCC4CCN(c5ncc(-c6cccc(Cl)c6)cc5C(F)(F)F)CC4)ccc23)C(=O)N1` (stereo not shown) [Compound A149]: the IC50 came to 1.74 µM.

On to `Cc1ccc(N2CCN(Cc3ccc(C(=O)NCc4ccc5c(c4)CN(C4CCC(=O)NC4=O)C5=O)cc3)CC2)cc1Cl` (stereo not shown) [Compound A130], for which the IC50 was 0.00054 µM.

As to `O=C1CCC(N2Cc3cc(CNCC4(F)CCN(c5ncc(-c6cccc(Cl)c6)cc5F)CC4)ccc3C2=O)C(=O)N1` (stereo not shown) [Compound A84], the IC50 is 0.0026 µM.

With `O=C1CCC(N2Cc3cc(C(=O)NCC4CCN(c5ccc(-c6cccc7ccccc67)cn5)CC4)ccc3C2=O)C(=O)N1` (stereo not shown) [Compound A34], the IC50 was under 0.0002 µM.

With `O=C(CN1CCC(CC(=O)Nc2ccc3c(c2)CN(C2CCC(=O)NC2=O)C3=O)CC1)NCCc1cccc2ccccc12` (stereo not shown) [Compound A10], the IC50 was 0.0074 µM.

Turning to `O=C1CCC(NC(=O)c2ccc(CNCC3CCN(c4ncc(-c5cccc(Cl)c5)cc4C(F)(F)F)CC3)cc2F)C(=O)N1` (stereo not shown) [Compound A158], the IC50 was 6.66 µM.

Regarding `O=C1CCC(c2coc3ccc(CNCC4CCN(c5ncc(-c6cccc(Cl)c6)cc5C(F)(F)F)CC4)cc23)C(=O)N1` (stereo not shown) [Compound A150], the IC50 worked out at 3.36 µM.

For the molecule `O=C1CCC(c2cn3cc(CNCC4CCN(c5ncc(-c6cccc(Cl)c6)cc5C(F)(F)F)CC4)ccc3n2)C(=O)N1` (stereo not shown) [Compound A148], the IC50 turned out to be 8.53 µM.
